Here are results for 12 compounds from patent US7879848B2, “Dipeptidyl Peptidase-IV inhibiting compounds, method of preparing the same, and pharmaceutical compositions containing the same as an active agent” (LG Life Sciences, Ltd., priority 2005, dated 2011).

pIC50: −log10 of the molar value.

The target of this assay is T1, Dipeptidyl Peptidase-IV (DPP-IV) (Homo sapiens, UniProt P27487).
T1 construct: made in house
The experiment in a line: Measurement of DPP-IV Activity-Inhibiting Ability (fluorescent substrate Ac-Gly-Pro-AFC). The class given is biochemical. The settings on record: 25° C., 50 mmol HEPES (pH 7.4), DP-IV 7.1 nM, enzyme reaction for 1 hour. The procedure, abridged: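 Fluorescence (ex 400 nm, em 505 nm) from cleavage of Ac-Gly-Pro-AFC ([…]) tracked activity at various inhibitor concentrations. Reactions used 7.1 nM recombinant enzyme, expressed in baculovirus and purified on nickel, in 50 mmol HEPES pH 7.4 at 25 °C.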

A word on the pIC50: it is the IC50 on a negative log10 scale, so that one unit is a factor of ten. Lower therefore signals a high IC50.

T1 sequence (P27487 whole entry): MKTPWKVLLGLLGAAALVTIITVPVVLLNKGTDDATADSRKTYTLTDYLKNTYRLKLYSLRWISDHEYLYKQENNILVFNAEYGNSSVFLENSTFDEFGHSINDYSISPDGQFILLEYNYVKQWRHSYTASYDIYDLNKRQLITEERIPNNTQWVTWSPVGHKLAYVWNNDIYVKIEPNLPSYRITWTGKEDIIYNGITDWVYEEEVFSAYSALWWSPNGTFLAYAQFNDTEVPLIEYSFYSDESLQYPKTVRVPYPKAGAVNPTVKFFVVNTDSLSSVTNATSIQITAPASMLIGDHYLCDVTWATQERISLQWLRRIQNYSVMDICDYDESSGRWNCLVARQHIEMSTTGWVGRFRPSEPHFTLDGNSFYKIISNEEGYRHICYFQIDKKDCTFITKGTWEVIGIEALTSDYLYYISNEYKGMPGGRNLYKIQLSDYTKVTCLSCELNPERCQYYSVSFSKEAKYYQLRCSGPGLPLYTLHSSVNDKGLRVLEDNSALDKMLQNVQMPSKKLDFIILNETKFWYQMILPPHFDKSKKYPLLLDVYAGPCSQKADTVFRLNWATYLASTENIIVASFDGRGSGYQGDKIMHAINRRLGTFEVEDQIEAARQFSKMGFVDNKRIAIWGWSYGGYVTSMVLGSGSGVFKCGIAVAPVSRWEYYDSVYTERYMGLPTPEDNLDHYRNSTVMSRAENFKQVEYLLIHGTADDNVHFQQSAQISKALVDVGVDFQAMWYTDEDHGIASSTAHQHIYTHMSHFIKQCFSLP

Compound `N[C@@H](CC(=O)N1CCc2c(nc(CF)nc2C(F)(F)F)C1)CN1CC(F)(F)CCC1=O` [Ex. 102, 1-{(2S)-2-amino-4-[2-(fluoromethyl)-4-(trifluoromethyl)-5,8-dihydropyrido[3,4-d]pyrimidin-7(6H)-yl]-4-oxobutyl}-5,5-difluoropiperidin-2-one] showed a pIC50 of 7.54.

Compound `CC1=CC(=O)N(C[C@@H](N)CC(=O)N2CCc3c(nc(C(F)(F)F)nc3C(F)(F)F)C2)C1` [Ex. 103, 1-{(2S)-2-amino-4-[2,4-bis(trifluoromethyl)-5,8-dihydropyrido[3,4-d]pyrimidin-7(6H)-yl]-4-oxobutyl}-4-methyl-1,5-dihydro-2H-pyrrol-2-one] showed a pIC50 of 7.13.

Compound `CC1=CC(=O)N(C[C@@H](N)CC(=O)N2CCc3c(nc(-c4ccoc4)nc3C(F)(F)F)C2)C1` [Ex. 104, 1-{(2S)-2-amino-4-[2-(3-furyl)-4-(trifluoromethyl)-5,8-dihydropyrido[3,4-d]pyrimidin-7(6H)-yl]-4-oxobutyl}-4-methyl-1,5-dihydro-2H-pyrrol-2-one] showed a pIC50 of 6.96.

`CC1CC(=O)N(C[C@@H](N)CC(=O)N2CCc3c(nc(C(F)(F)F)nc3C(F)(F)F)C2)C1` (stereo partly drawn) [Ex. 105, 1-{(2S)-2-amino-4-[2,4-bis(trifluoromethyl)-5,8-dihydropyrido[3,4-d]pyrimidin-7(6H)-yl]-4-oxobutyl}-4-methyloxopyrrolidin-2-one] had a pIC50 of 7.23.

Compound `CC1CC(=O)N(C[C@@H](N)CC(=O)N2CCc3c(nc(-c4ccoc4)nc3C(F)(F)F)C2)C1` (stereo partly drawn) [Ex. 106, 1-{(2S)-2-amino-4-[2-(3-furyl)-4-(trifluoromethyl)-5,8-dihydropyrido[3,4-d]pyrimidin-7(6H)-yl]-4-oxobutyl}-4-methylpyrrolidin-2-one] had a pIC50 of 7.35.

`N[C@@H](CC(=O)N1CCc2c(nc(C(F)(F)F)nc2C(F)(F)F)C1)CN1CC(C(F)(F)F)CCC1=O` (stereo partly drawn) [Ex. 107, 1-{(2S)-2-amino-4-[2,4-bis(trifluoromethyl)-5,8-dihydropyrido[3,4-d]pyrimidin-7(6H)-yl]-4-oxobutyl}-5-(trifluoromethyl)piperidin-2-one] showed a negative logarithm of the IC50 (pIC50) of 6.20.

For the compound `N[C@@H](CC(=O)N1CCc2c(nc(C(F)(F)F)nc2C(F)(F)F)C1)CN1CC(C(F)(F)F)CC1=O` (stereo partly drawn) [Ex. 108, 1-{(2S)-2-amino-4-[2,4-bis(trifluoromethyl)-5,8-dihydropyrido[3,4-d]pyrimidin-7(6H)-yl]-4-oxobutyl}-4-(trifluoromethyl)pyrrolidin-2-one], the pIC50 was 7.27.

Compound `N[C@@H](CC(=O)N1CCc2c(nc(-c3ccoc3)nc2C(F)(F)F)C1)CN1CC(C(F)(F)F)CC1=O` (stereo partly drawn) [Ex. 109, 1-{(2S)-2-amino-4-[2-(3-furyl)-4-(trifluoromethyl)-5,8-dihydropyrido[3,4-d]pyrimidin-7(6H)-yl]-4-oxobutyl}-4-(trifluoromethyl)pyrrolidin-2-one] had a pIC50 of 7.26.

`CC1CCN(C[C@@H](N)CC(=O)N2CCc3c(nc(C(F)(F)F)nc3C(F)(F)F)C2)C(=O)C1` (stereo partly drawn) [Ex. 110, 1-{(2S)-2-amino-4-[2,4-bis(trifluoromethyl)-5,8-dihydropyrido[3,4-d]pyrimidin-7(6H)-yl]-4-oxobutyl}-4-methyloxopiperidin-2-one] showed a pIC50 of 7.25.

Compound `CC1CCN(C[C@@H](N)CC(=O)N2CCc3c(nc(-c4ccoc4)nc3C(F)(F)F)C2)C(=O)C1` (stereo partly drawn) [Ex. 111, 1-{(2S)-2-amino-4-[2-(3-furyl)-4-(trifluoromethyl)-5,8-dihydropyrido[3,4-d]pyrimidin-7(6H)-yl]-4-oxobutyl}-4-methylpiperidin-2-one] had a pIC50 of 7.15.

`C[C@@H]1CCC(=O)N(C[C@@H](N)CC(=O)N2CCc3c(nc(C4CCC4)nc3C(F)(F)F)C2)C1` [Ex. 112, (5R)-1-{(2S)-2-amino-4-[2-cyclobutyl-4-(trifluoromethyl)-5,8-dihydropyrido[3,4-d]pyrimidin-7(6H)-yl]-4-oxobutyl}-5-methylpiperidin-2-one] showed a pIC50 of 8.00.

In turn, `N[C@@H](CC(=O)N1CCc2c(nc(C3CCC3)nc2C(F)(F)F)C1)CN1CC(F)(F)CCC1=O` [Ex. 113, 1-{(2S)-2-amino-4-[2-cyclobutyl-4-(trifluoromethyl)-5,8-dihydropyrido[3,4-d]pyrimidin-7(6H)-yl]-4-oxobutyl}-5,5-difluoropiperidin-2-one] had a pIC50 of 7.89.
